The values below come from patent publication US9637451B2, “Indole compound” (ASTELLAS PHARMA INC., priority 2014, dated 2017).

The target of data set [1] is T1, human MT1 receptor (Homo sapiens, UniProt P48039).
T1 construct: expressed in transfected cells
Briefly: Activation of human MT1 receptor in receptor-expressing cells, intracellular Ca2+ by FLIPR. The data set is classed as cell-based.

Data set [2] concerns the target T2, human MT2 receptor (Homo sapiens, UniProt P49286).
T2 construct: expressed in transfected cells
T2 sequence (P49286 1-362): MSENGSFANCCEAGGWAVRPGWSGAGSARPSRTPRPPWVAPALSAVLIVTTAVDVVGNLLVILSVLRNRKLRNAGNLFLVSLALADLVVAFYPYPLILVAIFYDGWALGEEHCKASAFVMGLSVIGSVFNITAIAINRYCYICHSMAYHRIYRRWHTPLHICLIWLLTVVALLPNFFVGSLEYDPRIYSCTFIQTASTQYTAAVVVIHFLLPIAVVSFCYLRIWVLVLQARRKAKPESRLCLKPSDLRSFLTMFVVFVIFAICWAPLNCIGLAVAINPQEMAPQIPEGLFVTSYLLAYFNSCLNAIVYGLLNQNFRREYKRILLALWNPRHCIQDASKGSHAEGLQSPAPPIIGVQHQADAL
Put plainly: Activation of human MT2 receptor in receptor-expressing cells, intracellular Ca2+ by FLIPR. The data set is classed as cell-based.

Data set [3] can be described thus: CSF-to-plasma unbound concentration ratio in rat after intravenous administration. It is filed as in vivo. Particulars: CSF and plasma (unbound), iv, 15 minutes after intravenous administration, fp by ultracentrifugation method.
Setting [4] is: maximum reaction by ramelteon taken as 100%.

Each structure is given as a SMILES string.

Usually EC50 stands for the concentration that produces a half-maximal response. High values mean a less potent agent, low ones a more potent agent. By Emax is commonly meant the greatest response seen or fitted, relative to the assay's reference.

T1 sequence (P48039 whole entry): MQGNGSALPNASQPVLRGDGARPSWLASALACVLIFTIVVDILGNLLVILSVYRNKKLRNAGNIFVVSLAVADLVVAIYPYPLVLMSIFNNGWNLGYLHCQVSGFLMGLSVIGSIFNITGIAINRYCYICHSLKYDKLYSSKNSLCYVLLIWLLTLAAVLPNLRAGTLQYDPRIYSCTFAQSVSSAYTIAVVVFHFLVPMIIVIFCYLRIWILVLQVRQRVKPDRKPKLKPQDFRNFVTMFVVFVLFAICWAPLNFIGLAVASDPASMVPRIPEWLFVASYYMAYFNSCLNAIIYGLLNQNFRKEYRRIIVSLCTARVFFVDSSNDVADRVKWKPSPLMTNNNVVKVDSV

As for `CC(=O)NCCc1c[nH]c2cc(F)c(OCCOc3ccn(C)n3)cc12` [Example 6, N-[2-(6-fluoro-5-{2-[(1-methyl-1H-pyrazol-3-yl)oxy]ethoxy}-1H-indol-3-yl)ethyl]acetamide], the EC50 was 7.5 nM in data set [1] (HEK293EBNA1 cells stably expressing human MT1 and Gq/i chimeric G protein, Ca2+ FLIPR); 10 nM in data set [2] (HEK293 cells stably expressing human MT2 and Gq/i chimeric G protein, Ca2+ FLIPR). Moreover, the Emax in data set [1] (setting [4]) was found to be 103%; in data set [2] (setting [4]), 119%. Moreover, the Kp uu at 0.25 h in data set [3] was 0.06.
